Values joined by “and” are separate entries in the source; they are usually repeats but may differ in a detail not shown here. Equal values may be shown once. After the bases stand the sugars from the 5' end (letter, count) and the backbone: PS all phosphorothioate, else s phosphorothioate and o phosphodiester by linkage. Methylation of C is not given here. e = 2'-O-(2-methoxyethyl) (MOE); k = constrained ethyl (cEt); d = 2'-deoxy (DNA)
Target: IRF4
Conditions: ASO

Sequence	target mRNA inhibition (MM.1R, 1 µM)	target mRNA inhibition (SK-MEL-28, 4 µM) [%]	also measured
TGAGGCATACAGTGTG (sugars k3 d10 k3, PS)	18%		
GATGTGATAGCTGAGC (sugars kkdddddddddkdkdk, PS)	34%		
TTCAACTTGTGACCCA (sugars k3 d10 k3, PS)		49	
GAGGAATGGCGGATAG (sugars k3 d10 k3, PS)		31	
ATTTCCGGGTGTGGCT (sugars k3 d10 k3, PS)	7%		
AGGAAACTTGGAGCGC (sugars k3 d10 k3, PS)	15%	77	target mRNA inhibition (MM.1R, 0.0625 µM): -1%; target mRNA inhibition (MM.1R, 0.25 µM): 2%; target mRNA inhibition (MM.1R, 4 µM): 42%
ACTGGATTGATGTGAT (sugars k3 d10 k3, PS)	25% and 39%		target mRNA inhibition (MM.1R, 0.0625 µM): 2% and 9%; target mRNA inhibition (MM.1R, 0.25 µM): 6% and 20%; target mRNA inhibition (MM.1R, 4 µM): 65% and 69%
CAGTTGTAAATGAGTC (sugars k2 d9 e3 k2, PS)	62%		target mRNA inhibition (H929, 0.00067 µM): 26%; target mRNA inhibition (H929, 0.002 µM): 46%; target mRNA inhibition (H929, 0.00667 µM): 64%; target mRNA inhibition (H929, 0.02 µM): 72%; target mRNA inhibition (H929, 0.04 µM): 50%; target mRNA inhibition (KMS11, 0.2 µM): 83% and 91%; target mRNA inhibition (MM.1R, 0.074 µM): 10%; target mRNA inhibition (MM.1R, 0.222 µM): 28%; target mRNA inhibition (MM.1R, 0.666 µM): 52%; target mRNA inhibition (MM.1R, 2 µM): 77%
AAAGAGCGCATTTCAG (sugars k3 d10 k3, PS)		6	
AGCTGACCATGTTACA (sugars k3 d10 k3, PS)		-19	
GCAGAGGGACCCACAC (sugars k3 d10 k3, PS)		21	
TGGGATTATATACTGG (sugars kkdddddddddkekek, PS)	42%		
TGGGATTATATACTGG (sugars kkdddddddddkdkdk, PS)	25%		
CATTTTATGGACCACG (sugars k3 d10 k3, PS)		62	
TGGCACAATTCTCTGA (sugars k3 d10 k3, PS)		13	
GCTAGCAGGAGCGAGA (sugars k3 d10 k3, PS)	-5%		
TCGCATAGAGCCCGTC (sugars k3 d10 k3, PS)		57	
TGTGATAGCTGAGCTG (sugars kddddddddddkekek, PS)	-2%		
AGCCTTCCTGCTCAGA (sugars k3 d10 k3, PS)		55	
ACAGAAGATCTCTACT (sugars k3 d10 k3, PS)		32	
AACGCAAGTCTGAATT (sugars k3 d10 k3, PS)	3%		
GAAACGAGCCAGTGCA (sugars k3 d10 k3, PS)		52	
TAATATAGTTGTCTGG (sugars k3 d10 k3, PS)		40	

Sequence	target mRNA inhibition (MM.1R, 1 µM)	target mRNA inhibition (SK-MEL-28, 4 µM) [%]	also measured
GGGCGACGACAGCTGC (sugars k3 d10 k3, PS)		32	
ATAGATCTGTGGTAAT (sugars k3 d10 k3, PS)		38	
AAGCAACACGGGAATT (sugars k3 d10 k3, PS)		22	
GGAATCTTGGCAGGGA (sugars k3 d10 k3, PS)		48	
CCACAACTGCAGTTTG (sugars k3 d10 k3, PS)		23	
AGCAGTGATGTCAGGT (sugars kkdddddddddkekek, PS)	66% and 67% and 64%		target mRNA inhibition (MM.1R, 0.0625 µM): 34%; target mRNA inhibition (MM.1R, 0.25 µM): 54%; target mRNA inhibition (MM.1R, 4 µM): 79%
TGCAAGCCTCATTCAC (sugars k3 d10 k3, PS)		42	
CGGCACAGGCGCGGAC (sugars k3 d10 k3, PS)		4	
TGGTTGGCTGGTCTTT (sugars kddddddddddkekek, PS)	9%		
AGCATTTTATCATCCG (sugars kdddddddddkekeke, PS)	24%		
GGGCATCCTCAGTTAC (sugars k3 d10 k3, PS)		33	
ACTCACTGGTTCTGAA (sugars k3 d10 k3, PS)		14	
ATGAGGGACCAGAACT (sugars k3 d10 k3, PS)	6%		
GGCAACCTGCATTTGC (sugars k4 d8 k4, PS)		-12	
GGCGACTGCTGAAAAC (sugars k3 d10 k3, PS)	-10%		
TCTACCTACTCCATCA (sugars k3 d10 k3, PS)		47	
TCCTCTGGCCATTGTC (sugars k3 d10 k3, PS)		41	
AGCATTTTATCATCCG (sugars kkdddddddddkekek, PS)	39%		
GGATAACCTGAACATG (sugars k3 d10 k3, PS)	9%		
AGTGAAGTCGGGAGAT (sugars k3 d10 k3, PS)	8%		
CCTCAGGAAATGTCCA (sugars k4 d8 k4, PS)		10	
CAGATAACGAGGTGCC (sugars k3 d10 k3, PS)		30	
AGCGAAGGGTAAGGCG (sugars k3 d10 k3, PS)		14	
